Assay results from patent US8586708B2, “Monovalent streptavidin compositions” (Massachusetts Institute of Technology, priority 2005, dated 2013).
Like-named read-outs stand apart in the source and are kept apart here.

What was measured:
[1] = Stability of monovalent streptavidin to subunit exchange (SDS-PAGE); format: physicochemical; conditions: for A1D3 rearranged into D4: PBS
Description: Methods described in the Methods section above herein were used for the following production and testing of monovalent streptavidin. Tests were performed to determine whether monovalent streptavidin would rearrange its subunit composition over time.

[2] = Off-rate of 3H-biotin with cold biotin chase and precipitation; format: binding; conditions: 10 nM 3H-biotin, 1 μM streptavidin, 50 μM cold biotin, 37° C.; ± s.e.m.
Description: (Green, N. M. Methods in Enzymol. 184: 51-67, 1990). Dissociation was then initiated by addition of cold biotin at a final concentration of 50 μM and time-points taken over 5 hours at 37° C. 50 μL aliquots were removed and added to 200 μL 0.2M ZnSO4 chilled on ice, followed by 200 μL 0.2 M NaOH. The protein precipitate was pelleted by centrifugation at 16,500 g for 5 min, and ^3H-biotin in the supernatant was measured by liquid scintillation counting. Data were plotted as ln(fraction bound) versus time, and fit to a straight line by linear regression. Dissociation rates were deduced from the slope of the line and the equation: ln(fraction bound)=−koff(t) where fraction bound=(total ^3H-biotin−free ^3H-biotin at timepoint)/(total ^3H-biotin−free ^3H-biotin before cold biotin chase).

[3] = tested on: AP-neuroligin-1 on hippocampal neurons; experiment: Clustering of biotinylated AP-neuroligin-1 on hippocampal neurons; format: cell-based, rat; conditions: for AP-neuroligin-1 clusters/μm: two hour incubation at 37° C., ± s.e.m., n=9; for AP-neuroligin-1 staining pattern: zero hours
Description: HeLa cells were grown in Dulbecco's Modified Eagle Medium (DMEM) with 10% Fetal Calf Serum, 50 U/mL penicillin and 50 μg/mL streptomycin. HeLa stably expressing AP-CFP-TM or Ala-CFP-TM have been previously described (Howarth, M. et al. Proc. Natl. Acad. Sci. USA 102: 7583-7588, 2005). Dissociated primary neuronal cultures were prepared from Embryonic Day 18 or 19 (E18/19) rats and transfected with Lipofectamine 2000 at DIV6 as in Levinson et al. (Levinson, J. N. et al. J. Biol. Chem. 280: 17312-17319, 2005).
(§1) Enzymatic biotinylation and imaging of HeLa transfectants were performed as previously described (Howarth, M. et al. Proc. Natl. Acad. Sci. USA 102: 7583-7588, 2005), except instead of 10 μM biotin and 1 mM ATP, we added 10 μM biotin-AMP (synthesized according to Coleman and Huang; Coleman, T. M. and Huang, F. Chem. Biol. 9: 1227-1236, 2002) to give equivalent biotinylation but minimizing the risk of purinoreceptor activation by ATP (Rathbone, M. P. et al., Prog. Neurobiol. 59: 663-690, 1999). […] Biotinylation of neurons was performed at day in vitro (DIV) 8 in Hanks' Balanced Salt Solution (HBSS) (Invitrogen) with 0.2 μM biotin ligase and 10 μM biotin-AMP for 5 min at 37° C. […] Neurons were washed with NeuroBasal media (Invitrogen) supplemented with B-27 (Invitrogen), 50 U/mL penicillin, 50 μg/mL streptomycin, and 0.2 mM L-glutamine and chased in the same medium for 0 or 2 hr at 37° C. Cells were then fixed in −20° C. methanol. There was no signal from wild-type streptavidin labeling if neurons were instead transfected with Ala-neuroligin-1 containing a point mutation in AP, confirming the specificity of labeling (Howarth, M. et al. Proc. Natl. Acad. Sci. USA 102: 7583-7588, 2005). To observe synapse formation, cells were biotinylated and stained with streptavidin as above, biotinylation and streptavidin staining was repeated at 6 hr, and then after 24 hr total chase cells were fixed in methanol. […]
Images of HeLa cells were collected on a Zeiss Axiovert 200M inverted epifluorescence microscope using a 40× oil-immersion lens and a MicroMAX CCD camera (Roper Scientific; Tucson, Ariz.). CFP (420DF20 excitation, 450DRLP dichroic, 475DF40 emission) and Alexa568 (560DF20 excitation, 585DRLP dichroic, 605DF30 emission) images were collected and analyzed using OpenLab software (Improvision; Lexington, Mass.). Fluorescence images were background-corrected. […] Images were scaled to 16 bits and analyzed in Northern Eclipse (Empix Imaging; Ontario, Canada) with user-written software. […] Results were then calculated in terms of clusters per micrometer of dendrite. For assessment of pre-synaptic terminals, clusters were determined as before and average grey levels of clusters were compared between transfected dendrites and untransfected dendrites within the same field of view. […]

[4] = Thermostability assay of tetramer (heat, SDS-PAGE); format: physicochemical; conditions: 3 min, PBS
Description: 2.3 μM wild-type streptavidin or chimeric streptavidin in PBS was heated at the indicated temperature for 3 min in a PTC-200 PCR machine (MJ Research; Waltham, Mass.) and then immediately placed on ice (Bayer, E. A. et al. Electrophoresis 17: 1319-1324, 1996). Samples were mixed with 6× SDS-PAGE loading buffer and loaded onto a 16% polyacrylamide gel.

[5] = tested on: biotinylated AP-CFP-TM on HeLa cells; experiment: Staining of biotinylated AP-CFP-TM on HeLa cells with Alexa Fluor 568 conjugates; format: cell-based; conditions: 10 μg/mL Alexa Fluor 568 conjugate, 10 min at 4° C.
Description: as §1, with “methanol.” for “methanol. There was no signal from wild-type streptavidin labeling if neurons were instead transfected with Ala-neuroligin-1 containing a point mutation in AP, confirming the specificity of labeling (Howarth, M. et al. Proc. Natl. Acad. Sci. USA 102: 7583-7588, 2005). To observe synapse formation, cells were biotinylated and stained with streptavidin as above, biotinylation and streptavidin staining was repeated at 6 hr, and then after 24 hr total chase cells were fixed in methanol.”
Images of HeLa cells were collected on a Zeiss Axiovert 200M inverted epifluorescence microscope using a 40× oil-immersion lens and a MicroMAX CCD camera (Roper Scientific; Tucson, Ariz.). CFP (420DF20 excitation, 450DRLP dichroic, 475DF40 emission) and Alexa568 (560DF20 excitation, 585DRLP dichroic, 605DF30 emission) images were collected and analyzed using OpenLab software (Improvision; Lexington, Mass.). Fluorescence images were background-corrected. […] Images were scaled to 16 bits and analyzed in Northern Eclipse (Empix Imaging; Ontario, Canada) with user-written software. […] Results were then calculated in terms of clusters per micrometer of dendrite. For assessment of pre-synaptic terminals, clusters were determined as before and average grey levels of clusters were compared between transfected dendrites and untransfected dendrites within the same field of view. […] “n” represents the number of transfected neurons for which clusters were measured. […]

[6] = Kd of D4 by 3H-biotin binding and protein precipitation
Description: After incubation at room temperature for 20 hr, the protein was precipitated by adding 50 μL to 200 μL 0.2 M ZnSO4 followed by 200 μL 0.2 M NaOH. The protein precipitate was pelleted by centrifugation at 16,500 g for 5 min. The biotin bound by D4 was calculated from the total ^3H -biotin added minus the ^3H -biotin in the supernatant. The Kd was obtained using a nonlinear regression analysis (one-site binding hyperbola) with SigmaPlot (Systat Software; Point Richmond, Calif.).

[7] = tested on: biotinylated cells; experiment: Binding to biotinylated cells; format: cell-based
[8] = literature value; read-out: Kd for biotin; cited from earlier work

Substance | off-rate from biotin [2] | AP-neuroligin-1 clusters/μm [3] [clusters/μm] | AP-neuroligin-1 staining pattern [3] | Alexa staining of biotinylated AP-CFP-TM [5] | also measured
A1D3: chimeric streptavidin tetramer with one Alive (wild-type, His6-tagged) subunit and three Dead (N23A, S27D, S45A) subunits [Tetramer A1D3] | 6.14±0.19×10^−5 s^−1 | 0.087±0.021 | diffuse surface staining | detected equally well | A1D3 rearranged into D4 ([1]; 37° C. incubation for one day): 2%; Formation of A2D2 from subunit exchange ([1]; 37° C. one day or room temperature one week): not detected; A1D3 rearranged into D4 ([1]; room temperature incubation for one week): 3%; tetramer stability to heat denaturation ([4]; 100° C.): A significant fraction of A1D3 remained tetrameric; thermostability compared with wild-type streptavidin ([4]; various temperatures): little difference
D4: streptavidin with 4 dead subunits (N23A, S27D, S45A; SEQ ID NO:3) [Tetramer D4] |  |  |  | no detectable staining | biotin binding (in words) [6]: negligible biotin binding; Kd ([6]; 24 μM D4, 0-500 μM 3H-biotin, room temperature 20 hr, ± s.e.m.): 918 ± 0.0117 µM
N23A, S27D: double mutant streptavidin tetramer with one of the weakest reported affinities for biotin |  |  |  |  | binding to biotinylated cells [7]: still bound; Kd [8]: 71 µM
wild-type streptavidin: wild-type core streptavidin tetramer with 4 biotin binding sites (SEQ ID NO:2) [reference compound] | 5.17±0.25×10^−5 s^−1 | 0.266±0.011 | diffuse surface staining | detected equally well | 
